Data from the supplement of paper PMC10307832.

Columns and labels:
Test in all cases: relative viability (nuclei count vs DMSO), 5 days (fraction); higher = more cells survive
Ibrutinib + AZD7762 = compound: C=CC(=O)N1CCC[C@@H](n2nc(-c3ccc(Oc4ccccc4)cc3)c3c(N)ncnc32)C1 [Ibrutinib] + NC(=O)Nc1cc(-c2cccc(F)c2)sc1C(=O)N[C@H]1CCCNC1 [AZD7762] (partner 0.2 µM)
Procedure, shortened: (§1)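 Each reported value is a median over duplicate plates. It expresses relative viability: treated-well nuclei count divided by vehicle-well nuclei count. Lung cancer cell lines in 1536-well plates were dosed by pin tool a day after seeding, alone with one drug or with a fixed anchor-drug dose plus five library-drug doses (not always all listed) in √10 steps, and nuclei were counted after 5 days.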

Ibrutinib + Crizotinib = compound: C=CC(=O)N1CCC[C@@H](n2nc(-c3ccc(Oc4ccccc4)cc3)c3c(N)ncnc32)C1 [Ibrutinib] + C[C@@H](Oc1cc(-c2cnn(C3CCNCC3)c2)cnc1N)c1c(Cl)ccc(F)c1Cl [Crizotinib] (partner 1 µM)
Procedure, shortened: as §1

Ibrutinib + Luminespib = compound: C=CC(=O)N1CCC[C@@H](n2nc(-c3ccc(Oc4ccccc4)cc3)c3c(N)ncnc32)C1 [Ibrutinib] + CCNC(=O)c1noc(-c2cc(C(C)C)c(O)cc2O)c1-c1ccc(CN2CCOCC2)cc1 [Luminespib] (partner 0.01 µM)
Procedure, shortened: as §1

BMX-IN-1 + Lapatinib = compound: C=CC(=O)Nc1cc(-n2c(=O)ccc3cnc4ccc(-c5ccc(NS(C)(=O)=O)cc5)cc4c32)ccc1C [BMX-IN-1] + CS(=O)(=O)CCNCc1ccc(-c2ccc3ncnc(Nc4ccc(OCc5cccc(F)c5)c(Cl)c4)c3c2)o1 [Lapatinib] (partner 2 µM)
Procedure, shortened: as §1

Cell Line | relative viability (Ibrutinib + AZD7762; first compound 0.005 µM) | relative viability (Ibrutinib + AZD7762; first compound 0.01581 µM) | relative viability (Ibrutinib + AZD7762; first compound 0.05 µM) | relative viability (Ibrutinib + AZD7762; first compound 0.1581 µM) | relative viability (Ibrutinib + AZD7762; first compound 0.5 µM) | relative viability (Ibrutinib + Crizotinib; first compound 0.005 µM) | relative viability (Ibrutinib + Crizotinib; first compound 0.01581 µM) | relative viability (Ibrutinib + Crizotinib; first compound 0.05 µM) | relative viability (Ibrutinib + Crizotinib; first compound 0.1581 µM) | relative viability (Ibrutinib + Crizotinib; first compound 0.5 µM) | relative viability (Ibrutinib + Luminespib; first compound 0.005 µM) | relative viability (Ibrutinib + Luminespib; first compound 0.01581 µM) | relative viability (Ibrutinib + Luminespib; first compound 0.05 µM) | relative viability (Ibrutinib + Luminespib; first compound 0.1581 µM) | relative viability (Ibrutinib + Luminespib; first compound 0.5 µM) | relative viability (BMX-IN-1 + Lapatinib; first compound 0.02 µM) | relative viability (BMX-IN-1 + Lapatinib; first compound 0.2 µM) | relative viability (BMX-IN-1 + Lapatinib; first compound 0.6325 µM) | relative viability (BMX-IN-1 + Lapatinib; first compound 2 µM)
201T | 0.539 | 0.583 | 0.623 | 0.66 | 0.553 | 1.03 | 1.02 | 1.03 | 1.04 | 1.04 | 1.03 | 1.02 | 1.07 | 1.05 | 0.953 | 1.03 | 1.04 | 1.05 | 1.05
A549 | – | – | – | – | – | 0.814 | 0.649 | 0.639 | 0.708 | 0.661 | – | – | – | – | – | 1.04 | 1.47 | 1.17 | 1.02
A-427 | 0.745 | 0.734 | 0.757 | – | 0.706 | 0.89 | 0.87 | 1.03 | 0.875 | 0.832 | 1.09 | 0.85 | 0.832 | 1.1 | 1.01 | 1.21 | 0.995 | 1.17 | 1.06
ABC-1 | 0.904 | 0.863 | 0.807 | 0.759 | 0.695 | 1.21 | 1.03 | 1.57 | 1.56 | 1.03 | 0.476 | – | 0.68 | – | 0.562 | 1.46 | 1.23 | 1.16 | 1.28
BEN | 0.473 | 0.61 | 0.637 | 0.506 | 0.697 | 0.952 | 0.962 | 0.803 | 0.67 | 0.943 | – | 0.292 | 0.318 | 0.307 | 0.462 | 0.829 | 0.891 | 0.729 | 0.724
CAL-12T | 0.701 | 0.69 | 0.544 | 0.616 | 0.766 | – | 0.589 | 0.582 | 0.718 | 0.301 | 0.417 | 0.14 | 0.416 | 0.276 | 0.302 | 0.692 | 0.722 | 0.795 | 0.613
COR-L23 | – | – | – | – | – | 0.707 | 0.641 | 0.693 | 0.644 | 0.653 | 0.605 | 0.681 | 0.722 | 0.597 | 0.622 | 1.65 | 1.47 | 1.17 | 0.941
COR-L 105 | – | – | – | – | – | 0.654 | 0.846 | 0.472 | 0.9 | 0.235 | 0.765 | 0.802 | 0.744 | 0.883 | 0.599 | 0.327 | 0.33 | 0.376 | 0.371
Calu-6 | – | – | – | – | – | 0.911 | 0.576 | 0.802 | 0.723 | 0.872 | – | – | – | – | – | 1 | 1.44 | 1.33 | 1.06
ChaGo-K-1 | 0.85 | 0.798 | 0.894 | 0.833 | 0.838 | 1.18 | 1.05 | 1.16 | – | 1.06 | 0.586 | 0.409 | 0.53 | 0.655 | 0.556 | – | – | – | –
EBC-1 | – | – | – | – | – | 0.199 | 0.21 | 0.205 | 0.188 | 0.162 | – | – | – | – | – | 0.243 | 0.181 | 0.206 | 0.168
EKVX | 0.75 | 0.61 | 0.605 | 0.732 | 0.246 | 0.995 | 0.743 | 1.05 | 0.964 | 0.562 | 0.66 | 0.784 | 0.856 | 0.81 | 0.547 | 0.208 | 0.197 | 0.216 | 0.189
EMC-BAC-2 | 1.19 | 1.1 | 1.1 | – | 1.2 | 0.79 | 0.679 | 0.731 | 0.813 | 0.726 | 1.15 | 1.14 | 1.25 | 1.15 | 1.05 | 0.985 | 0.997 | 0.991 | 0.887
EPLC-272H | – | 0.232 | 0.269 | 0.241 | 0.191 | – | 0.806 | 0.809 | 1.06 | 0.522 | 0.485 | 0.433 | 0.211 | 0.313 | 0.211 | 1.03 | 0.929 | 1.14 | 1.08
H3255 | 0.695 | 0.767 | 0.61 | 0.754 | 0.418 | 0.873 | 0.81 | 0.729 | 0.874 | 0.429 | 1.13 | 0.945 | – | 1.19 | 0.704 | 0.207 | 0.206 | 0.207 | 0.222
HCC-78 | – | 0.732 | 0.251 | 0.452 | 0.592 | 0.347 | 0.328 | 0.289 | 0.335 | 0.247 | – | – | – | – | – | 0.812 | 0.835 | 0.663 | 0.878
HCC-366 | 0.329 | 0.233 | 0.247 | 0.347 | 0.303 | 0.623 | 0.525 | 0.506 | 0.45 | 0.514 | – | – | – | – | – | 1.53 | 1.65 | 1.07 | 1.12
